Test results from US5324648A, “Substituted isocoumarins as serine protease inhibitors and anti-inflammatory agents” (Georgia Tech Research Corporation, priority 1992, dated 1994).

Tests used:
human factor Xa = target: T1, human factor Xa (Homo sapiens, UniProt P00742); assay: Inactivation rate of human factor Xa; type: biochemical; conditions: Table VIII; pH 7.5, 25° C; [I] 3.6-44 μM; read-out: kobs/[I]
T1 construct: human factor Xa
In short: (§1)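 Enzyme 0.01-2.3 μM, 0.1M Hepes/0.01M CaCl2 pH 7.5, 8-12% Me2SO, 25° C; inhibitor added, timed aliquots assayed for remaining activity; kobs = slope of ln(vt/vo) vs t.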

[1] = target: recombinant human tissue plasminogen activator (Homo sapiens, UniProt P00750); assay: Inactivation rate of recombinant human tissue plasminogen activator; type: biochemical; conditions: pH 7.5, Table IX; pH 7.5, 25° C; [I] 3.5-5.0 μM; read-out: kobs/[I]
recombinant human tissue plasminogen activator, sequence (P00750 36-562): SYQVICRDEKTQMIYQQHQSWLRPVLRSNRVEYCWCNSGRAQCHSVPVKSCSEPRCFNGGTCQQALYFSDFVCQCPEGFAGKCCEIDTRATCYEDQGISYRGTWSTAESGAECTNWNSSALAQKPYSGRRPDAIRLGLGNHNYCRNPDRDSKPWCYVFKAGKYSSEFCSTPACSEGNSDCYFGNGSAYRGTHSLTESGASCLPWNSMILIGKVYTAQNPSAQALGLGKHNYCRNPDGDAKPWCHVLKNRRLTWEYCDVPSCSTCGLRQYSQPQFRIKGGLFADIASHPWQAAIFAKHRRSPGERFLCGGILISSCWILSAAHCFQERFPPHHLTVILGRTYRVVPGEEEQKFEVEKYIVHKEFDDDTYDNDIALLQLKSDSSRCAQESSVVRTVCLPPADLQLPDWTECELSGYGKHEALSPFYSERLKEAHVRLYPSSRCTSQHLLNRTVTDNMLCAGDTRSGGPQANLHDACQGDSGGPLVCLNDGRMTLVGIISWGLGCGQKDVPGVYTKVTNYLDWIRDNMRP
In short: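 Incubation method: enzyme mixed with inhibitor in Me2SO (8–12% v/v) in 0.1M Hepes, 0.5M NaCl, pH 7.5; aliquots withdrawn over time for residual activity with ZArg-SBzl (0.07 mM) plus 4,4'-dithiodipyridine (0.33 mM). kobs taken from ln(vt/vo) versus time plots.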

rat skin tryptase = target: T2, rat skin tryptase (Rattus norvegicus, UniProt P27435); assay: Inactivation rate of rat skin tryptase; type: biochemical; conditions: pH 7.5, Table IX; pH 7.5, 25° C; [I] 0.42-0.51 μM; read-out: kobs/[I]
T2 construct: from tissue; host or cells: rat skin
T2 sequence (P27435 29-273): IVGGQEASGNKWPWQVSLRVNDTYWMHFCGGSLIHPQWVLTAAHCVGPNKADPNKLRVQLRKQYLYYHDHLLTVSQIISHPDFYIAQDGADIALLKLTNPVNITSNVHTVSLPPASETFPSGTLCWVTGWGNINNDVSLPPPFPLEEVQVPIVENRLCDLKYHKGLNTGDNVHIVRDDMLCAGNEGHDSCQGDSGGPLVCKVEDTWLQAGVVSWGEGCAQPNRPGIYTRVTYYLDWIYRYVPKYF
In short: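 Rat skin tryptase incubated with isocoumarin inhibitor in 25 mM phosphate, 0.5 M NaCl, 1 mM EDTA, pH 7.5, 8-9% Me2SO, 25 °C; aliquots withdrawn over time for residual activity on ZArg-SBzl (0.07 mM) with 4,4'-dithiodipyridine (0.33 mM). First-order kobs from ln(vt/vo) versus time.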

human skin tryptase = assay: Inhibition of human skin tryptase; type: biochemical; conditions: Table IX; for kobs/[I]: pH 7.5, 25° C, [I] 0.34-0.39 μM
Method: (§2) Inactivation rates of serine proteases by substituted isocoumarins were measured by the incubation method. An aliquot of inhibitor (25 or 50 μl) in Me2 SO was added to a buffered enzyme solution (0.01-2.3 μM) to initiate the inactivation. Aliquots (50 μl) were withdrawn at various intervals and the residual enzymatic activity was measured. Me2 SO concentration in the reaction mixture was 8-12% (v/v). 0.1 Hepes, 0.01M CaCl2, pH 7.5 buffer was utilized for trypsin and coagulation enzymes. 0.1M Hepes, 0.5M NaCl, pH 7.5 was utilized for other serine proteases. The inhibitor concentrations are shown in all the tables. Peptide thioesters or peptide nitroanilides with appropriate sequence were used as substrates for various serine proteases. All peptide thioester hydrolysis rates were measured with assay mixtures containing 4,4'-dithiodipyridine (ε324 =19800M^-1 cm^-1; Grasetti & Murray, Arch. Biochem. Biophys. 119, pp 41-49 (1967)). Peptide 4-nitroanilide nitroanilide hydrolysis was measured at 410 nm (ε410 =8800M^-1 cm^-1; Erlanger et al., Arch. Biochem. Biophys. 95, pp 271-278 (1961)). First order inactivation rate constant (kobs) were obtained from plots of ln (vt /vo) vs time, and the correlation coefficients were greater than 0.98.
(§3) ^a Inhibition rates were measured in 0.1M Hepes, 0.01M CaCl2, pH
7.5 buffer for human plasmin; 25 mM Phosphate, 0.5M NaCl, 1 mM EDTA, pH
7.5 buffer for rat skin tryptase and 0.1M Hepes, 0.5M NaCl, pH 7.5 for
human lung tryptase, human skin tryptase and rt-PA. All enzymes were
assayed with ZArg-SBzl (0.07 mM) in the presence of 4,4dithiodipyridine
(0.33 mM). Reaction mixtures contained 8% Me2 SO and assays were […]

human factor XIIa = target: T3, human factor XIIa (Homo sapiens, UniProt P00748); assay: Inactivation rate of human factor XIIa; type: biochemical; conditions: Table VIII; pH 7.5, 25° C; [I] 3.6-4.9 μM; read-out: kobs/[I]
T3 construct: human factor XIIa
T3 sequence (P00748 373-615 limits assumed): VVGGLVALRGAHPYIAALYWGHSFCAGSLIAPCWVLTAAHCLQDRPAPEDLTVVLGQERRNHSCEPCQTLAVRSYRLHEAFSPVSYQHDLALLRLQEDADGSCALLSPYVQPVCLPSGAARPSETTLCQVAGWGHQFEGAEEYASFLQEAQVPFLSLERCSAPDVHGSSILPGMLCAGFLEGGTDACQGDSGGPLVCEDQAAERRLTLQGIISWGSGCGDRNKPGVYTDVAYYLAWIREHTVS
T3 sequence (P00748 20-372 partner limits assumed): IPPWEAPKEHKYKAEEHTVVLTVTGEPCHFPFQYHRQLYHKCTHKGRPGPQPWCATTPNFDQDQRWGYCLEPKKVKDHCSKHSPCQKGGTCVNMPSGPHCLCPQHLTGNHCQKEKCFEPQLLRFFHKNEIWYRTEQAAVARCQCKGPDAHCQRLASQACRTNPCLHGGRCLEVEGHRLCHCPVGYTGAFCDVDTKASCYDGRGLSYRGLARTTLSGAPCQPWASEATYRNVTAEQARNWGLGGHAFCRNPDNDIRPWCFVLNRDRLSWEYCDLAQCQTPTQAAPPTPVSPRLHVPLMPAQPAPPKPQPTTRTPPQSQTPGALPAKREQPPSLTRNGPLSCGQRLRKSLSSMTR
Method: as §2
^a Conditions were as 0.1M Hepes, 0.01M CaCl2, pH 7.5 and 8-12%
Me2 SO and 25° C. Rate constants were measured by incubation
method unless otherwise noted. An aliquot of inhibitor was added to an
enzyme solution and aliquots removed with time and assayed for remaining
enzymatic activity. Firstorder rate constants, kobs were obtained
from the plots of ln(vt /vo) versus time.
as §3
7.5 buffer, 8% Me2 SO and at 25° C.

human lung tryptase = assay: Inactivation rate of human lung tryptase; type: biochemical; conditions: Table IX; pH 7.5, 25° C; [I] 0.42-0.47 μM
In short: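 Incubation method in 0.1M Hepes, 0.5M NaCl, pH 7.5, 8% Me2SO, 25° C; inhibitor added to enzyme, aliquots withdrawn over time for residual activity. Substrate ZArg-SBzl (0.07 mM) with 4,4'-dithiodipyridine (0.33 mM). kobs from ln(vt/vo) vs time plots.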

human thrombin = target: T4, human thrombin (Homo sapiens, UniProt P00734); assay: Inactivation rate of human thrombin; type: biochemical; conditions: Table VIII; pH 7.5, 25° C; [I] 1.2-54 μM; read-out: kobs/[I]
T4 construct: human thrombin
In short: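 Incubation method: enzyme (0.01-2.3 μM) mixed with inhibitor in 0.1M Hepes, 0.01M CaCl2, pH 7.5, 8% Me2SO, 25° C; residual activity sampled over time with peptide thioester or 4-nitroanilide substrates. kobs from ln(vt/vo) vs time plots.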

bovine thrombin = target: T5, bovine thrombin (Bos taurus, UniProt P00735); assay: Inactivation rate of bovine thrombin; type: biochemical; conditions: Table VIII; pH 7.5, 25° C; [I] 1.2-54 μM; read-out: kobs/[I]
T5 construct: bovine thrombin
In short: as §1

chymotrypsin [2] = target: T6, chymotrypsin (Bos taurus, UniProt P00766); assay: Reactivation of inhibited chymotrypsin; type: biochemical, bovine
Method: (§4) ^a Inhibition was performed at 0.1M Hepes, 0.5M NaCl, pH 7.5 buffer,
(§5) 10% Me2 SO and 25° C. Reactivation was carried out in the
presence of 0.36M of NH2 OH, and occurred immediately after the
^b Enzyme activity was measured after two days.

rat granule chymase [3] = assay: Inhibition of rat granule chymase; type: biochemical; conditions: Table XIV; [I] 0.2 mM; not time dependent
Method: (§6) ^a Inhibition was measured at 0.1M Hepes, 0.5M NaCl, pH 7.5 buffer,
(§7) 10% Me2 SO and 25° C. Suc--Phe--Leu--PheSBzl (0.14 mM) and
(§8) ZGly--ArgSBzl (0.06 mM) were used to measure chymase and tryptase activit

rat granule tryptase = assay: Inhibition of rat granule tryptase; type: biochemical; conditions: Table XIV; [I] 0.2 mM
Method: as §6, §7, §8

rat granule chymase [4] = assay: Reactivation of inhibited rat granule chymase; type: biochemical; conditions: [I] 39 μM; +NH2OH 0.36M
Method: as §4, §5
presence of 0.36M of NH2 OH, and occurred immediately after the […]

[5] = target: T7, human leukocyte elastase (HLE) (Homo sapiens, UniProt P08246); assay: Inactivation of human leukocyte elastase (HLE); type: biochemical; conditions: Table X; pH 7.5, 25° C; [I] 2.1-42 μM; read-out: kobs/[I]
T7 construct: from tissue; host or cells: human leukocytes (from the name)
T7 sequence (P08246 30-267): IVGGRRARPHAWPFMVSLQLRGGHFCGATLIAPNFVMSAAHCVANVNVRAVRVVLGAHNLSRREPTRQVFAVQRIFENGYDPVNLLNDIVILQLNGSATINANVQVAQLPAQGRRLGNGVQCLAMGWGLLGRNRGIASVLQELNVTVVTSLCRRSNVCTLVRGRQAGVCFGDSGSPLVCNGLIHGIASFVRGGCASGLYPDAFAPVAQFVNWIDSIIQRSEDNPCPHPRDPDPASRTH

[6] = Spontaneous hydrolysis in Hepes buffer; type: physicochemical; conditions: 0.1 Hepes, 0.5M NaCl, pH 7.5, 9% Me2SO, 25° C
Method: ^a Conditions were 0.1 Hepes, 0.5M NaCl, pH 7.5 and 9% Me2 SO at
25° C. Spontaneous hydrolysis rates were measured
spectrophotometrically by monitoring the decrease in absorbance due to th
isocoumarin ring system (wavelength 335-380 nm) using the firstorder rate

chymotrypsin [7] = target: T6, chymotrypsin; assay: Inactivation of chymotrypsin; type: biochemical, bovine; conditions: Table X; pH 7.5, 25° C; [I] 0.9-43 μM; read-out: kobs/[I]
cathepsin G = target: T8, cathepsin G (Homo sapiens, UniProt P08311); assay: Inactivation of cathepsin G; type: biochemical; conditions: Table X; pH 7.5, 25° C; [I] 33-46 μM; read-out: kobs/[I]
T8 construct: from tissue; host or cells: human leukocytes
T8 sequence (P08311 21-255): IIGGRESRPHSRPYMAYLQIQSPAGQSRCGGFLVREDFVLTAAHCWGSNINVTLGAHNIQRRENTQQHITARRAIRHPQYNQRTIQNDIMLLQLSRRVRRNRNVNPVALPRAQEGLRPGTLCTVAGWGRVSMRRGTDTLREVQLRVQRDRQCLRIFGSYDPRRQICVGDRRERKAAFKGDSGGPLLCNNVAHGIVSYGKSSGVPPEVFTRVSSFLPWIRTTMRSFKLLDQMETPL
Method: Inactivation rates of serine proteases by substituted isocoumarins were measured by the incubation method. An aliquot of inhibitor (25 or 50 μl) in Me2 SO was added to a buffered enzyme solution (0.01-2.3 μM) to initiate the inactivation. Aliquots (50 μl) were withdrawn at various intervals and the residual enzymatic activity was measured. Me2 SO concentration in the reaction mixture was 8-12% (v/v). 0.1 Hepes, 0.01M CaCl2, pH 7.5 buffer was utilized for trypsin and coagulation enzymes. 0.1M Hepes, 0.5M NaCl, pH 7.5 was utilized for other serine proteases. […] Peptide thioesters or peptide nitroanilides with appropriate sequence were used as substrates for various serine proteases. All peptide thioester hydrolysis rates were measured with assay mixtures containing 4,4'-dithiodipyridine (ε324 =19800M^-1 cm^-1 ; Grasetti & Murray, Arch. Biochem. Biophys. 119, pp 41-49 (1967)). Peptide 4-nitroanilide nitroanilide hydrolysis was measured at 410 nm (ε410 =8800M^-1 cm^-1 ; Erlanger et al., Arch. Biochem. Biophys. 95, pp 271-278 (1961)). First order inactivation rate constant (kobs) were obtained from plots of ln (vt /vo) vs time, and the correlation coefficients were greater than 0.98.
^a Inactivation rates were measured at 0.1M Hepes, 0.5 NaCl, pH 7.5,
8-12% Me2 SO and 25° C. by incubation method.
and assayed for remaining activity.
^a Inhibition rates were measured in 0.1M Hepes, 0.05M NaCl, pH 7.5
buffer, 8-9% Me2 SO and at 25° C.
Me2 SO, pH 7,5 and at 25° C.
^a Inhibition was measured in 0.1M Hepes, 0.5M NaCl, pH 7.5 buffer,
5-10% Me2 SO and at 25° C. Suc--Val--Pro--Phe--NA (0.48 mM)
was used as the substrate for chymotrypsin and cat G.

bovine trypsin = target: T9, bovine trypsin (Bos taurus, UniProt P00760); assay: Inactivation rate of bovine trypsin; type: biochemical; conditions: Table VIII; pH 7.5, 25° C; [I] 1.1-4.6 μM; read-out: kobs/[I]
T9 sequence (P00760 24-246): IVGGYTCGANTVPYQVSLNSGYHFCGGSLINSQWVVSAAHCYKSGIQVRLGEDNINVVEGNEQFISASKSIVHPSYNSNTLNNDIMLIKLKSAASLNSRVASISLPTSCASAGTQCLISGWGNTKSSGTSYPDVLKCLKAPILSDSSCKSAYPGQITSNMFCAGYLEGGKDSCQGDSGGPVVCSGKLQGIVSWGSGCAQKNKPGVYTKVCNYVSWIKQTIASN
In short: as §1

[8] = target: T10, porcine pancreatic elastase (PPE) (Sus scrofa, UniProt P00772); assay: Inactivation of porcine pancreatic elastase (PPE); type: biochemical; conditions: Table X; after 20 min incubation
T10 construct: from tissue; host or cells: porcine pancreas (from the name)
T10 sequence (P00772 27-266): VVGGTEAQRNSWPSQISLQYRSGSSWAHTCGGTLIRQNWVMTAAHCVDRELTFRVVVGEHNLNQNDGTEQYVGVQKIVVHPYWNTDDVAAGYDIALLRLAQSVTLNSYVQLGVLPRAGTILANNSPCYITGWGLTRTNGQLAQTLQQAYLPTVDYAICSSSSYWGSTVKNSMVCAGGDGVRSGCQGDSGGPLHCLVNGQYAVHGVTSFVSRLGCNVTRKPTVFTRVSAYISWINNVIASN

human plasmin = target: T11, human plasmin (Homo sapiens, UniProt P00747); assay: Inactivation rate of human plasmin; type: biochemical; conditions: Table IX; 0.01M CaCl2, pH 7.5, 25° C; [I] 8.3-41 μM; read-out: kobs/[I]
T11 construct: human plasmin; from tissue; host or cells: human plasma
T11 sequence (P00747 581-810 limits assumed): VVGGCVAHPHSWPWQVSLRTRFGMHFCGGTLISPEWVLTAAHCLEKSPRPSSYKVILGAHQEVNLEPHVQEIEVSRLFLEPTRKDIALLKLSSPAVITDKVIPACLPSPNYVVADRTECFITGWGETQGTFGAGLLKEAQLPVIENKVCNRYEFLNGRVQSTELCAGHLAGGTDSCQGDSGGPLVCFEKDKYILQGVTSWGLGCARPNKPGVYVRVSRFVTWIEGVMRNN
T11 sequence (P00747 97-580 partner limits assumed): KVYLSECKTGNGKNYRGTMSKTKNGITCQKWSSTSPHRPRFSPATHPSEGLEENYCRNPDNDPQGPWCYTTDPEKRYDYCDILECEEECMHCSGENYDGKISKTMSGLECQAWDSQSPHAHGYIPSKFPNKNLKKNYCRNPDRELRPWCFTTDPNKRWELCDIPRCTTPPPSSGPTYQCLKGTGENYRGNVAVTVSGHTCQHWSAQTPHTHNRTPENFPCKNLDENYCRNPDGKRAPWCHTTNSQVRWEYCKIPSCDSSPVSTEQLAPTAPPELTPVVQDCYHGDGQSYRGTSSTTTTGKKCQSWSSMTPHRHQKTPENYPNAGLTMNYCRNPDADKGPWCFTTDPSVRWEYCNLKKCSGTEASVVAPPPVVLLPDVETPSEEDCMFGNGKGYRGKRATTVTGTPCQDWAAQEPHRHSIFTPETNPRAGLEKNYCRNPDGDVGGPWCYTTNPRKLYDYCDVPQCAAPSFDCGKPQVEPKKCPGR

T1 sequence (P00742 235-488 limits assumed): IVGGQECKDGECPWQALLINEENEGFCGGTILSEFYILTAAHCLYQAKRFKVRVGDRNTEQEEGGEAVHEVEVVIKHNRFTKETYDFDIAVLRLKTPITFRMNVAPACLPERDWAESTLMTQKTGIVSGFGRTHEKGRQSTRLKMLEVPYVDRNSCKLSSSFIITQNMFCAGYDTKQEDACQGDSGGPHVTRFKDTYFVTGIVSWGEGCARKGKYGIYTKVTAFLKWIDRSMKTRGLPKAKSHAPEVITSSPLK
T1 sequence (P00742 41-179 partner limits assumed): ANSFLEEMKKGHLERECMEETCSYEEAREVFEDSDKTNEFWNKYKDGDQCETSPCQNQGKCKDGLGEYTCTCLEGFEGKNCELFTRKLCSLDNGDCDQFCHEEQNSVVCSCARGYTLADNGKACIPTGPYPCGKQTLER

kinact/KI (human factor Xa) [M⁻¹ s⁻¹]	kinact/KI [1] [M⁻¹ s⁻¹]	kinact/KI (rat skin tryptase) [M⁻¹ s⁻¹]	kobs/[I] (human skin tryptase)	kinact/KI (human factor XIIa) [M⁻¹ s⁻¹]	kobs/[I] (human lung tryptase)	kinact/KI (human thrombin) [M⁻¹ s⁻¹]	kinact/KI (bovine thrombin) [M⁻¹ s⁻¹]	t1/2 for spontaneous hydrolysis [6] [h]	kinact/KI (bovine trypsin) [M⁻¹ s⁻¹]	Compound	other results
3070	15000	360000	62,000 M^-1 s^-1	82000	60,000 M^-1 s^-1	3070	4240			N=C(N)SCCOc1oc(=O)c2cc(NC(=O)[C@H](N)Cc3ccccc3)ccc2c1Cl [D-Phe--NH-CiTEtOIC, 7-(D-phenylalanylamino)-4-chloro-3-(2-isothiureidoethoxy)isocoumarin]	
										O=C(CCCC[C@@H]1SC[C@@H]2NC(=O)N[C@@H]21)Nc1ccc2c(Cl)c(OCCc3ccccc3)oc(=O)c2c1 [7-biotinylamino-4-chloro-3-(2-phenylethoxy)isocoumarin]	% of Enzyme Activity Reactivated (chymotrypsin [2]; [I] 39 μM, +NH2OH 0.36M): 85%; % of Enzyme Activity Reactivated (chymotrypsin [2]; [I] 39 μM, in buffer, after two days): 51%; % of Enzyme Activity Reactivated (chymotrypsin [2]; [I] 78 μM, +NH2OH 0.36M): 79%; % of Enzyme Activity Reactivated (chymotrypsin [2]; [I] 78 μM, in buffer, after two days): 7%; % of inhibition (rat granule chymase [3]): 10-20%; kobs/[I] (rat granule tryptase): 2 to 3 M⁻¹ s⁻¹; % of Enzyme Activity Reactivated (rat granule chymase [4]): 100%
	18000	270000			190,000 M^-1 s^-1	700	420	2.47	51000	N=C(N)SCCCOc1oc(=O)c2cc(NC(=O)NCc3ccccc3)ccc2c1Cl [PhCH2 NHCONH-CiTPrOIC, 7-(benzylcarbamoylamino)-4-chloro-3-(3-isothiureidopropoxy)isocoumarin]	kinact/KI [5]: 250 M⁻¹ s⁻¹; percentage of inhibition (human skin tryptase; not time dependent, at 0.34-5.0 μM): 68%; kinact/KI (chymotrypsin [7]): 13400 M⁻¹ s⁻¹; kinact/KI (cathepsin G): 50 M⁻¹ s⁻¹; percentage of inhibition [8]: 9%; kinact/KI (human plasmin): 5120 M⁻¹ s⁻¹
50	19000	250000	38,000 M^-1 s^-1	7720	140,000 M^-1 s^-1	1840	970	2.47	63000	N=C(N)SCCCOc1oc(=O)c2cc(NC(=O)Nc3ccccc3)ccc2c1Cl [PhNHCONH-CiTPrOIC, 7-(phenylcarbamoylamino)-4-chloro-3-(3-isothiureidopropoxy)isocoumarin]	
